Test [1] has as its system colorectal (HCT116 and SW620) cell line models. Nature of the test: MTS growth inhibition assay. In kind it is cell-based. The settings on record: 5-FU between 0 and 100 μmol/L; both colorectal cancer cell lines (HCT116 and SW620). Here is the method: The Cell Titer AQueous MTS assay (Promega) is carried out according to the manufacturers guidelines. […] Fraction affected (FA) is calculated from the percent growth inhibition: FA=(100−% growth inhibition)/100.
Test compounds are evaluated for their antitumor activity in colorectal cancer cells using the MTS growth inhibition assay. HCT116 and SW620 cells are exposed to increasing concentrations of each agent for 72 hours and growth inhibition is directly compared to vehicle-treated controls. The NSCLC cell lines A549 and H1299 are exposed to increasing concentrations of each agent for 72 hours and growth inhibition is directly compared to vehicle-treated controls.
Simultaneous treatment with increasing concentrations of 5-FU and a test compound at fixed concentrations of 25 μmol/L is determined.
For orientation: Formazan colour is commonly taken as a measure of viable cells.

Test [2] relates to colorectal (HCT116), breast (MCF-7) and non-small cell lung (H1299, A549, H358 and H460) cell line models. Nature of the test: Colony forming assay. As to conditions: FUdR between 0.5 and 2.5 μmol/L; all cell lines evaluated. In kind it is cell-based. Here is the method: Colony forming assay showing the ability of colon (SW620, HCT116), non-small cell lung (A549, H460, H1299 and H358) and breast (MCF7) cancer cells to survive and proliferate following transient 24 hour exposure to test compounds, FUdR and combinations are determined. Specifically, cells are seeded at densities between 50 and 100 cells/well in 24-well plates. Twenty-four hours later, cells are treated with increasing concentrations of a rtest compound, a fixed dose of FUdR and combinations of these. After 24 hours, drug is removed, cells are rinsed and allowed to outgrow for 10-14 days. At the conclusion of the outgrowth, cells are fixed in 60% ice cold methanol and stained with 0.1% crystal violet, scanned and counted. Data is presented as percentage of untreated controls (mean±SD). Fraction affected and combination indexes are calculated according to the method of Chou and Talalay where <1 is indicative of a synergistic drug interaction.
Colony forming assays are performed to evaluate the effectiveness of test compounds alone and in combination with the fluoropyrimidine thymidylate synthase (TS) inhibitor fluorodeoxyuridine (FUdR) at reducing cancer cell viability in colorectal (HCT116), breast (MCF-7) and non-small cell lung (H1299, A549, H358 and H460) cell line models. […]

This is an account of results in patent US12098133B2, “Hydantoin containing deoxyuridine triphosphatase inhibitors” (CV6 Therapeutics (NI) Limited, priority 2015, dated 2024).

Regarding `O=c1[nH]cc(F)c(=O)[nH]1` [5-FU, 5-fluorouracil], in test [1], the growth inhibition result is recorded as “dose-dependent increases in growth inhibition”. As for `O=c1[nH]c(=O)n([C@H]2C[C@H](O)[C@@H](CO)O2)cc1F` [FUdR, fluorodeoxyuridine], the colonies formed result in test [2] is reported as “dose-dependent decreases in colonies formed”.
